Source: US20240260575A1, “AGRICULTURAL AND HORTICULTURAL FUNGICIDAL COMPOSITION” (Nippon Soda Co., Ltd., priority 2021, published 2024)

How the values were obtained:
[1] = tested on: cucumber powdery mildew pathogen (Sphaerotheca fuliginea); test: Cucumber powdery mildew control test; assay type: in vivo; design: scale not given here; conditions: for control value: Compound 2 0.4 ppm alone or mixed with component (II), sprayed onto cucumber seedlings
Source text: (Test Example) Cucumber Powdery Mildew Control Test 1) Preparation of Drug Solution for Test […] The other components (II) were each formulated into an aqueous solution or suspension having a predetermined concentration. 2) Test A mixed solution of a component (I) and a component (II) at a predetermined concentration was sprayed onto cucumber seedlings (variety: “Shimo-shirazu, creeping type”, cotyledon stage). After natural drying at room temperature, conidiospores of a cucumber powdery mildew pathogen (Sphaerotheca fuliginea) were inoculated by blushing off, and the seedlings were kept in a thermostatic room at 20° C. using a 12 hour light/dark cycle for 7 to 10 days. The states of lesion development on leaves were examined by comparing with that for the untreated case, and the control values were determined. The test was duplicately carried out. The results are shown in Tables 8 to 12 together with expected values calculated as follows. Expected values were calculated by using Colby's equation: […] Here, E denotes an expected value of a control value, M denotes a control value in using a component (I) alone, and N denotes a control value in using a component (II) alone. If the actually measured control value of a composition of a component (I) and a component (II) is higher than the expected value, E, the composition of a component (I) and a component (II) is said to have exerted synergistic effect.

[2] = tested on: gray mold pathogen (Botrytis cinerea); test: Gray mold antimicrobial test (growth inhibition rate); assay type: cell-based; design: growth inhibition rate, component (II) alone: concentration or dose not given beside the values; conditions: for growth inhibition rate: Compound 2 (0.25 or 0.063 ppm) alone or mixed with component (II)
Experimental: (Test Example) Gray Mold Antimicrobial Test (Growth Inhibition Rate)
Conidiospores of a gray mold pathogen (Botrytis cinerea) were added to and dispersed in a yeast extract sucrose medium, and a component (I) and a component (II) dissolved in dimethyl sulfoxide at predetermined concentrations were further added and mixed thereto, and the resulting solution was dispensed onto a 96-well microplate and cultivated in the dark at 20° C. for 3 to 5 days. After the cultivation, the turbidity at a wavelength of 405 nm was measured by a microplate reader and compared with that in the untreated case to determine the growth inhibition rate (%) for the gray mold pathogen. The test was duplicately carried out. The results are shown in Tables 3 to 7 together with expected values calculated as follows.
Expected values were calculated by using Colby's equation: E=M+N−MN/100. Here, E denotes an expected value (%) of a growth inhibition rate, M denotes a growth inhibition rate (%) in using a component (I) alone, and N denotes a growth inhibition rate (%) in using a component (II) alone.
If the actually measured growth inhibition rate (%) of a composition of a component (I) and a component (II) is higher than the expected value, E, the composition of a component (I) and a component (II) is said to have exerted synergistic effect.

[3] = Table 8, ppm or dilution rate: Thiophanate-methyl 1.6, Triflumizole 25, Cyflufenamid 1.6, Iminoctadine acetate 0.25, Iminoctadine albesilate 1, Picarbutrazox 2000, Ipflufenoquin 1, Bacillus subtilis ×250, Pseudomonas rhodesiae ×2000, Sodium hydrogen carbonate 250, Potassium bicarbonate 250, Orange oil 4000, Linalool 4000, Thymol 100, Neem oil 2000, Prothioconazole 1.6, Mancozeb 63, Mineral oil 500
[4] = Table 9, ppm or dilution rate: Thiophanate-methyl 1.6, Triflumizole 25, Cyflufenamid 1.6, Iminoctadine acetate 0.25, Iminoctadine albesilate 1, Picarbutrazox 2000, Ipflufenoquin 1, Bacillus subtilis ×250, Pseudomonas rhodesiae ×2000, Sodium hydrogen carbonate 250, Potassium bicarbonate 250, Orange oil 1000, Linalool 4000, Thymol 100, Neem oil 2000, Prothioconazole 1.6, Mancozeb 63, Mineral oil 500
[5] = Table 10, ppm or dilution rate: Thiophanate-methyl 1.6, Triflumizole 25, Cyflufenamid 1.6, Iminoctadine acetate 0.25, Iminoctadine albesilate 1, Picarbutrazox 2000, Ipflufenoquin 1, Bacillus subtilis ×1000, Pseudomonas rhodesiae ×2000, Sodium hydrogen carbonate 250, Potassium bicarbonate 250, Orange oil 1000, Linalool 4000, Thymol 100, Neem oil 2000, Prothioconazole 1.6, Mancozeb 63, Mineral oil 5
[6] = Table 11, ppm or dilution rate: Thiophanate-methyl 1.6, Triflumizole 25, Cyflufenamid 1.6, Iminoctadine acetate 1, Iminoctadine albesilate 1, Picarbutrazox 2000, Ipflufenoquin 1, Bacillus subtilis ×1000, Pseudomonas rhodesiae ×2000, Sodium hydrogen carbonate 250, Potassium bicarbonate 250, Orange oil 1000, Linalool 4000, Thymol 100, Neem oil 2000, Prothioconazole 1.6, Mancozeb 63, Mineral oil 500
[7] = Table 12, ppm or dilution rate: Thiophanate-methyl 1.6, Triflumizole 25, Cyflufenamid 1.6, Iminoctadine acetate 0.25, Iminoctadine albesilate 1, Picarbutrazox 2000, Ipflufenoquin 1, Bacillus subtilis ×1000, Pseudomonas rhodesiae ×2000, Sodium hydrogen carbonate 1000, Potassium bicarbonate 250, Orange oil 1000, Linalool 4000, Thymol 400, Neem oil 2000, Prothioconazole 1.6, Mancozeb 63, Mineral oil
[8] = Table 3, ppm: Ipflufenoquin 10, Cyflufenamid 10, Thiophamate-methyl 0.4, Iminoctadine acetate 0.08, Iminoctadine albesilate 0.08, Triflumizole 0.0032, Picarbutrazox 0.08, Prothioconazole 0.0032, Mefentrifluconazole 0.00064, Cymoxanil 10, Fludioxonil 0.016, Metyltetraprole 0.4, Florylpicoxamid 0.08, Fluxapyroxad 0.08, Fluopyram 0.4, Potassium phosphite 10, Fipronil 2, Chlorantraniliprole 0.016, Aba
[9] = Table 5, ppm: Ipflufenoquin 10, Cyflufenamid 10, Thiophamate-methyl 0.4, Iminoctadine albesilate 0.4, Picarbutrazox 0.0032, Mefentrifluconazole 0.0006, Cymoxanil 10, Captan 0.0032, Fludioxonil 0.016, Metyltetraprole 10, Florylpicoxamid 0.0001, Fluxapyroxad 0.016, Fluopyram 0.0032, Potassium phosphite 0.08, Fipronil 2, Chlorantraniliprole 0.016, Abamectin 0.4, Sulfoxaflor 0.4, Tebufenozide 10
[10] = Table 6, ppm: Ipflufenoquin 10, Cyflufenamid 0.08, Thiophamate-methyl 2, Triflumizole 0.08, Picarbutrazox 0.0016, Prothioconazole 0.0006, Mefentrifluconazole 0.08, Cymoxanil 0.08, Captan 0.08, Fludioxonil 0.016, Metyltetraprole 10, Florylpicoxamid 0.0006, Fluxapyroxad 0.0032, Fluopyram 0.016, Potassium phosphite 0.016, Fipronil 10, Chlorantraniliprole 0.08, Abamectin 2, Sulfoxaflor 0.08, Tebufenoz
[11] = Table 7, ppm: Ipflufenoquin 0.08, Cyflufenamid 0.08, Thiophamate-methyl 2, Iminoctadine acetate 0.0001, Iminoctadine albesilate 0.4, Triflumizole 0.4, Prothioconazole 0.0032, Mefentrifluconazole 0.08, Cymoxanil 0.08, Captan 0.08, Fludioxonil 0.08, Metyltetraprole 0.0032, Florylpicoxamid 0.0006, Fluxapyroxad 0.016, Fluopyram 0.0032, Potassium phosphite 0.016, Fipronil 2, Chlorantraniliprole 0.016
[12] = Table 4, ppm: Ipflufenoquin 10, Cyflufenamid 2, Thiophamate-methyl 0.4, Iminoctadine acetate 0.08, Iminoctadine albesilate 0.4, Picarbutrazox 10, Prothioconazole 0.0032, Mefentrifluconazole 0.0006, Cymoxanil 10, Fludioxonil 0.016, Metyltetraprole 10, Fluxapyroxad 0.016, Fluopyram 0.4, Potassium phosphite 10, Fipronil 2, Chlorantraniliprole 0.016, Abamectin 0.016, Sulfoxaflor 10, Tebufenozide 0.016

| Molecule | control value, component (II) alone [1, 3] | control value, component (II) alone [1, 4] | control value, component (II) alone [1, 5] | control value, component (II) alone [1, 6] | control value, component (II) alone [1, 7] | growth inhibition rate, component (II) alone [2, 8] [%] | growth inhibition rate, component (II) alone [2, 9] [%] | growth inhibition rate, component (II) alone [2, 10] [%] | growth inhibition rate, component (II) alone [2, 11] [%] | growth inhibition rate, component (II) alone [2, 12] [%] | other results |
| --- | --- | --- | --- | --- | --- | --- | --- | --- | --- | --- | --- |
| O=C([O-])O.[Na+] [Sodium hydrogen carbonate] | 33 | 33 | 33 | 33 | 33 |  |  |  |  |  |  |
| COc1ccc(F)cc1C(O)Cn1cc(/C(C)=N/OC(C)C)c(=O)n(C[C@@H](NC(=O)C(C)(C)C)C(C)C)c1=O (stereo partly shown) [Compound 2] |  |  |  |  |  |  |  |  |  |  | growth inhibition rate ([2]; Table 4, Examination 1): 69%; growth inhibition rate ([2]; Table 4, Examination 2): 53%; growth inhibition rate ([2]; Table 4, Examination 3): 46%; growth inhibition rate ([2]; Table 4, Examination 4): 41%; growth inhibition rate ([2]; Table 4, Examination 5): 35%; control value ([1]; Table 9, Examination 1): 67; control value ([1]; Table 9, Examination 2): 71; control value ([1]; Table 9, Examination 3): 67; control value ([1]; Table 9, Examination 4): 67; control value ([1]; Table 9, Examination 5): 59; control value ([1]; Table 9, Examination 6): 67 |
| COc1ccnc(C(=O)N[C@@H](C)C(=O)O[C@@H](C)C(c2ccc(F)cc2)c2ccc(F)cc2)c1OC(C)=O [Florylpicoxamid] |  |  |  |  |  | 13 | 0 | 8 | 6 |  |  |
| Abamectin |  |  |  |  |  | 0 | 64 | 12 | 0 | 0 |  |
| COC(=O)NC(=S)Nc1ccccc1NC(=S)NC(=O)OC [Thiophanate-methyl] | 83 | 83 | 0 | 67 | 17 |  |  |  |  |  |  |
| Potassium phosphite |  |  |  |  |  | 0 | 0 | 1 | 12 | 0 |  |
| CCCOC/C(=N\c1ccc(Cl)cc1C(F)(F)F)n1ccnc1 [Triflumizole] | 27 | 27 | 27 | 27 | 27 |  |  |  |  |  |  |
| Cn1cc(C(=O)Nc2ccccc2-c2cc(F)c(F)c(F)c2)c(C(F)F)n1 [Fluxapyroxad] |  |  |  |  |  | 8 | 10 | 10 | 11 | 10 |  |
| Cc1cccc(-n2nnn(C)c2=O)c1COc1ccn(-c2ccc(Cl)cc2)n1 [Metyltetraprole] |  |  |  |  |  | 0 | 33 | 33 | 0 | 52 |  |
| O=C([O-])O.[K+] [Potassium bicarbonate] | 64 | 64 | 17 | 64 | 64 |  |  |  |  |  |  |
| Cc1ccc(C(C)C)c(O)c1 [Thymol] | 17 | 17 | 17 | 17 | 50 |  |  |  |  |  |  |
| C=CC(C)(O)CCC=C(C)C (stereo not shown) [Linalool] | 27 | 27 | 17 | 17 | 27 |  |  |  |  |  |  |
| OC(Cc1ccccc1Cl)(Cn1nc[nH]c1=S)C1(Cl)CC1 (stereo not shown) [Prothioconazole] | 50 | 0 | 17 | 0 | 0 |  |  |  |  |  |  |
| O=C(Cc1ccccc1)N/C(=N\OCC1CC1)c1c(C(F)(F)F)ccc(F)c1F [Cyflufenamid] | 50 | 50 | 50 | 50 | 50 |  |  |  |  |  |  |
| CC(O)(Cn1cncn1)c1ccc(Oc2ccc(Cl)cc2)cc1C(F)(F)F (stereo not shown) [Mefentrifluconazole] |  |  |  |  |  | 0 | 48 | 37 | 34 | 0 |  |
| Mancozeb | 17 | 17 | 17 | 17 | 17 |  |  |  |  |  |  |
